Results: paper PMC6934184, “Selective DNA-PKcs inhibition extends the therapeutic index of localized radiotherapy and chemotherapy” (The Journal of Clinical Investigation, 2019)

Biological target: T1, EGFR (ErbB1) T790M L858R (Homo sapiens, UniProt P00533, L858R/T790M)
T1 construct: purchased Thermo Fisher Scientific (Life Technologies) SelectScreen
Assay: SelectScreen Z'LYTE
Assay type: biochemical
How it was run: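 Compound tested in SelectScreen activity assays, Z'LYTE for CSF1R, CDK1/cyclin B and MAP2K6 and Adapta for CAMK1. ATP for CAMK1 was listed as 10, and Km app was used for CSF1R. Results are expressed in percent.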

T1 sequence (P00533 25-1210 T790M/L858R): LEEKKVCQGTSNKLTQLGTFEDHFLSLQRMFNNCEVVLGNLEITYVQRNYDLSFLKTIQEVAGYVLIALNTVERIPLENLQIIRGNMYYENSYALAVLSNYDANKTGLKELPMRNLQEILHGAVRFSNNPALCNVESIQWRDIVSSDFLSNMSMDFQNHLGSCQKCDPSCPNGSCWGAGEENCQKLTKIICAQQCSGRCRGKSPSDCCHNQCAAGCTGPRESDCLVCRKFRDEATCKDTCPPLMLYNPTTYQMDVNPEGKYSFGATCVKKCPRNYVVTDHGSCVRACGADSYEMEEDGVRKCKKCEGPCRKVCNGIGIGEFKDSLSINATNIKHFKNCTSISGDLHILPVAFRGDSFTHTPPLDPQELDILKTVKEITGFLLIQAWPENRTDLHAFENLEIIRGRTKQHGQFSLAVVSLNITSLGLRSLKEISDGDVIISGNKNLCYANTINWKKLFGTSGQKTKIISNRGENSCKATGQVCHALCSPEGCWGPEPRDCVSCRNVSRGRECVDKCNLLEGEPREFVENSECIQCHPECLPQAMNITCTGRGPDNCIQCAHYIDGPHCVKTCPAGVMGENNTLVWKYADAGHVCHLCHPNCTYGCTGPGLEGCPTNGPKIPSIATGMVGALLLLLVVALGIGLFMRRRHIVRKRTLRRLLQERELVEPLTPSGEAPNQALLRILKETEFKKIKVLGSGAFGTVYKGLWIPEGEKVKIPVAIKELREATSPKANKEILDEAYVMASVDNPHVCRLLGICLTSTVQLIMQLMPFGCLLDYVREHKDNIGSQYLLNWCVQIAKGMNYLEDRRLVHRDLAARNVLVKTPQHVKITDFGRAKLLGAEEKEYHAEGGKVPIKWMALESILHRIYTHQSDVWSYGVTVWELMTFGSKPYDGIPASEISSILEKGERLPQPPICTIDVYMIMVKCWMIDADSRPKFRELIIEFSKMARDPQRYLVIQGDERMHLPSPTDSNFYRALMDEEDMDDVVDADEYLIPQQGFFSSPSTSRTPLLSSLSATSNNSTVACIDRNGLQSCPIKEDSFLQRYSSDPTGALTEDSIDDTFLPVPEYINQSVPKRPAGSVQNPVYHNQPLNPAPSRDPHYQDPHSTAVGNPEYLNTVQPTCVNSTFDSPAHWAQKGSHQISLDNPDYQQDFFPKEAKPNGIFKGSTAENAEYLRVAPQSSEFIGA

## CN(C(=O)CN1CCOCC1)c1ccc2sc3c(-c4cccc5c(=O)cc(N6CC7CCC(C6)O7)oc45)cccc3c2c1 [NU5455]
  inhibition at 1 µM: -14.1%
